In patent publication US8575165B2, “Methods for treating inflammatory disorders using 2,4-pyrimidinediamine compounds” (Rigel Pharmaceuticals, Inc., priority 2009, dated 2013):

Legend:
IL-23 = assay: In vitro IL-23 assay: IL-23 (p19/p40) ELISA of supernatant from IFNγ-primed THP-1 cells stimulated with SAC; type: cell-based, human; parameters: key: “+” indicates an increase in production; “−” indicates a decrease in production; settings: effect on expression level of IL-23 in THP-1 cells primed with IFNγ and stimulated with 0.01% SAC; test compound 0.01 μM to 20 μM
Description: (§1) Exponentially growing THP-1 cells were plated (100K/well in 100 μL) in standard RPMI media (1% P/S+10% FBS) containing 50 ng/mL IFNγ (1000 U/mL) onto a white clear bottom 96 well plate and leave the cells in 37° C. incubator for 24 h.
(§2) After 24 h incubation, 100 μL of RPMI media containing 2× concentrated test compound per well was added to the above cell-culture media (final concentration of test compound was from 0.01 μM to 20 μM). The plates were pre-incubated for 1 h at 37° C. before being stimulated with SAC.
(§3) After 1 h compound pre-incubation, 10 μL per well of 20× concentrated SAC solution in RPMI media was added to give a final concentration of 0.01%, the plates were shaken and incubated at 37° C. for an additional 18 h.
(§4) 155 μL of the supernatant was harvested from each well and to the remaining 50 μL/well of the cell culture plate was added 50 μL of CELL TITER GLO® reagent. The plates were incubated for 1-2 minutes on a shaker and read for luminescence intensity to determine the compound cytotoxicity.
(§5) The cell culture supernatant collected above was used to carry out IL23 ELISA (65 μL-Supernatant) and IL10 ELISA (90 μL-Supernatant) as described below.
B. Human IL-23 (p19/p40) ELISA Protocol (e-Biosciences)
Cell Culture Supernatant (65 μL from THP-1 cells primed with IFNγ (50 ng/mL-1000 U/mL) and stimulated with 0.01% SAC)
To 10.5 mL PBS was added 50 μL of anti-IL23 (p19) capture antibody (2.5 μg/mL), mixed well and 100 μL of the coating solution was added to each well of the 96 well white plates from Pierce, cover and incubate overnight at 4° C.
The anti-IL23 (p19)-antibody-coated plates were washed 2× using TBST (use plate washer) and the plates were blocked using 200 μL of 0.5% Casein for 1.5-2 h at room temperature with shaking.
The plates were washed 2× using TBST and the supernatant (65 μL/well) was transferred to the above pre-blocked/IL23(p19)-antibody-coated 96 well plate and incubated at RT for 1.5 h with shaking.
The plate was washed 4× using TBST (plate washer) and 100 μL/well of detection antibody solution was added. The detection antibody solution was prepared from 2 μL of biotin labeled anti-IL-12 (p40/p70) antibody in 11 mL 1% BSA/PBS solution (1-5000 dilution). The plates were incubated for 1 hour with shaking at RT.
(§6) Again, the plate was washed 4× with TBST and 100 μL of HRP labeled Streptavidin (R&D Systems) solution (10 μL/10 mL 1% BSA solution) was added and incubated at RT for another 45 min with shaking.
After 45 min, the plate was washed with TBST 4× and 100 μL/well Super Signal ELISA Pico Chemiluminescent Substrate from Pierce (3.5 mL A+3.5 mL B+3.5 mL MQ water) was added, the plate was shaken for 1-2 minutes then read on a plate reader to quantify the amount of IL-23 secreted by the cells.

IL-10 = assay: In vitro IL-10 assay: IL-10 ELISA of supernatant from IFNγ-primed THP-1 cells stimulated with SAC; type: cell-based, human; parameters: key: “+” indicates an increase in production; “−” indicates a decrease in production; settings: effect on expression level of IL-10 in THP-1 cells primed with IFNγ and stimulated with 0.01% SAC; test compound 0.01 μM to 20 μM
Description: as §1, §2, §3, §4, §5
C. Human IL-10 ELISA Protocol (e-Biosciences)
Cell Culture Supernatant (90 μL from THP-1 cells primed with IFNγ (50 ng/mL-1000 U/mL) and stimulated with 0.01% SAC)
To 10.5 mL PBS was added 50 μL of anti-IL10 capture antibody (2.5 μg/mL), mixed well and 100 μL of the coating solution was added to each well of the 96 well white plates from Pierce. The plates were covered and incubated overnight at 4° C.
The anti-IL10 antibody-coated plates were washed 2× using TBST (use plate washer) and blocked the using 200 μL of 0.5% Casein for 1.5-2 h at RT with shaking.
The plates were washed 2× using TBST and the supernatant (100 μL/well) was transferred to the above pre-blocked/IL10-antibody-coated 96 well plate and incubated at RT for 1.5 h with shaking.
The plate was washed 4× using TBST (plate washer) and 100 μL/well detection antibody solution prepared from 2 μL of biotin labeled anti-IL-10 antibody in 11 mL 1% BSA/PBS solution (1-5000 dilution) was added. The plates were incubated for 1 hour with shaking at RT.
as §6
After 45 min, the plate was washed with TBST 4× and 100 uL/well Super Signal ELISA Pico Chemiluminescent Substrate from Pierce (3.5 mL A+3.5 mL B+3.5 mL MQ water) was added, the plate was shaken for 1-2 minutes then read on a plate reader to quantify the amount of IL-10 secreted by the cells.

Row | Structure (SMILES) | IL-23 (IL-23) | IL-10 (IL-10)
1 | CN1C(C)(C)CC(Nc2nc(Nc3ccc(N4CCN(S(C)(=O)=O)CC4)c(C(F)(F)F)c3)ncc2C(F)(F)F)CC1(C)C [Compound 25] | − | +
2 | CN1C(C)(C)CC(Nc2nc(Nc3ccc(N4CCN(S(C)(=O)=O)CC4)c(Cl)c3)ncc2[N+](=O)[O-])CC1(C)C [Compound 21] |  | +
3 | CN1CCN(c2ccc(Nc3ncc(F)c(NC4CC(C)(C)N(C)C(C)(C)C4)n3)cc2Cl)CC1 [Compound 6] |  | +
4 | CN1CCN(S(=O)(=O)c2ccc(Nc3ncc(F)c(NC4CC(C)(C)N(C)C(C)(C)C4)n3)cc2Cl)CC1 [Compound 8] | − | +
5 | CN1C(C)(C)CC(Nc2nc(Nc3ccc(N4CCN(S(=O)(=O)C5CC5)CC4)c(Cl)c3)ncc2F)CC1(C)C [Compound 15] |  | +
6 | CN1C(C)(C)CC(Nc2nc(Nc3ccc(N4CCN(S(C)(=O)=O)CC4)c(Cl)c3)ncc2C#N)CC1(C)C [Compound 23] | − | +
7 | CN1CCN(c2ccc(Nc3ncc(F)c(NC4CC(C)(C)N(C)C4(C)C)n3)cc2C(F)(F)F)CC1 (centres unmarked) [Compound 4] | − | −
8 | CCOC(=O)c1cnc(Nc2ccc(N3CCN(S(C)(=O)=O)CC3)c(C(F)(F)F)c2)nc1NC1CC(C)(C)N(C)C(C)(C)C1 [Compound 18] | − | +
9 | CN1C(C)(C)CC(CNc2nc(Nc3ccc(N4CCN(S(C)(=O)=O)CC4)c(C(F)(F)F)c3)ncc2F)C1(C)C (centres unmarked) [Compound 7] | − | +
10 | CN1C(C)(C)CC(Nc2nc(Nc3ccc(N4CCN(S(C)(=O)=O)CC4)c(Cl)c3)ncc2C(F)(F)F)CC1(C)C [Compound 26] |  | +
11 | CN1C(C)(C)CC(Nc2nc(Nc3ccc(N4CCN(S(C)(=O)=O)CC4)c(OC(F)F)c3)ncc2F)CC1(C)C [Compound 13] |  | +
12 | CN1C(C)(C)CC(Nc2nc(Nc3ccc(N4CCN(S(C)(=O)=O)CC4)c(C(F)(F)F)c3)ncc2F)C1(C)C (centres unmarked) [Compound 3] | − | +
13 | CN1C(C)(C)CC(Nc2nc(Nc3ccc(N4CCN(S(C)(=O)=O)CC4)c(C#N)c3)ncc2C#N)CC1(C)C [Compound 24] |  | +
14 | CCN1C(=O)C(F)(F)Oc2cc(Nc3ncc(F)c(NC4CC(C)(C)N(C)C(C)(C)C4)n3)ccc21 [Compound 16] |  | +
15 | CN1C(C)(C)CC(Nc2nc(Nc3ccc(N4CCN(S(C)(=O)=O)CC4)c(C(F)(F)F)c3)ncc2F)CC1(C)C [Compound 1] | − | 
16 | CN1C(C)(C)CC(Nc2nc(Nc3ccc(S(=O)(=O)N4CCNCC4)c(Cl)c3)ncc2F)CC1(C)C [Compound 9] |  | +
17 | CN1CCN(c2ccc(Nc3ncc(F)c(NC4CC(C)(C)N(C)C(C)(C)C4)n3)cc2Cl)CC1 [Compound 17] |  | −
18 | CN1C(C)(C)CC(Nc2nc(Nc3ccc(N4CCN(S(C)(=O)=O)CC4)c(C(F)(F)F)c3)ncc2[N+](=O)[O-])CC1(C)C [Compound 20] |  | +
19 | CCOC(=O)c1cnc(Nc2ccc(N3CCN(S(C)(=O)=O)CC3)c(Cl)c2)nc1NC1CC(C)(C)N(C)C(C)(C)C1 [Compound 19] | − | +
20 | CN1C(C)(C)CC(Nc2nc(Nc3ccc(N4CCN(S(C)(=O)=O)CC4)c(C(F)(F)F)c3)ncc2F)CC1(C)C [Compound 10] |  | +
21 | CN1CCN(c2ccc(Nc3ncc(F)c(NC4CC(C)(C)N(C)C(C)(C)C4)n3)cc2C(F)(F)F)CC1 [Compound 2] | − | −
22 | CN1C(C)(C)CC(Nc2nc(Nc3ccc(N4CCN(S(=O)(=O)C5CC5)CC4)c(C(F)(F)F)c3)ncc2F)CC1(C)C [Compound 11] |  | +
23 | CN1C(C)(C)CC(Nc2nc(Nc3ccc(N4CCN(S(C)(=O)=O)CC4)c(C#N)c3)ncc2F)CC1(C)C [Compound 12] |  | +
24 | CN1C(C)(C)CC(Nc2nc(Nc3ccc(N4CCN(S(C)(=O)=O)CC4)c(C(F)(F)F)c3)ncc2C#N)CC1(C)C [Compound 22] |  | +
25 | CN1C(C)(C)CC(Nc2nc(Nc3ccc(N4CCN(S(C)(=O)=O)CC4)c(Cl)c3)ncc2F)CC1(C)C [Compound 5] |  | +
26 | COc1ccc(Nc2ncc(F)c(NC3CC(C)(C)N(C)C(C)(C)C3)n2)cc1OC(F)F [Compound 14] |  | +
